# Assay results published in patent publication US12358999B2, “Protein recognizing drug moiety of antibody-drug conjugate” (DAIICHI SANKYO COMPANY, LIMITED, priority 2018, dated 2025).
# Counter-ions that a name gives are not always drawn.
# T1: topoisomerase I (Homo sapiens, UniProt P11387)
# T1 sequence (P11387 1-765): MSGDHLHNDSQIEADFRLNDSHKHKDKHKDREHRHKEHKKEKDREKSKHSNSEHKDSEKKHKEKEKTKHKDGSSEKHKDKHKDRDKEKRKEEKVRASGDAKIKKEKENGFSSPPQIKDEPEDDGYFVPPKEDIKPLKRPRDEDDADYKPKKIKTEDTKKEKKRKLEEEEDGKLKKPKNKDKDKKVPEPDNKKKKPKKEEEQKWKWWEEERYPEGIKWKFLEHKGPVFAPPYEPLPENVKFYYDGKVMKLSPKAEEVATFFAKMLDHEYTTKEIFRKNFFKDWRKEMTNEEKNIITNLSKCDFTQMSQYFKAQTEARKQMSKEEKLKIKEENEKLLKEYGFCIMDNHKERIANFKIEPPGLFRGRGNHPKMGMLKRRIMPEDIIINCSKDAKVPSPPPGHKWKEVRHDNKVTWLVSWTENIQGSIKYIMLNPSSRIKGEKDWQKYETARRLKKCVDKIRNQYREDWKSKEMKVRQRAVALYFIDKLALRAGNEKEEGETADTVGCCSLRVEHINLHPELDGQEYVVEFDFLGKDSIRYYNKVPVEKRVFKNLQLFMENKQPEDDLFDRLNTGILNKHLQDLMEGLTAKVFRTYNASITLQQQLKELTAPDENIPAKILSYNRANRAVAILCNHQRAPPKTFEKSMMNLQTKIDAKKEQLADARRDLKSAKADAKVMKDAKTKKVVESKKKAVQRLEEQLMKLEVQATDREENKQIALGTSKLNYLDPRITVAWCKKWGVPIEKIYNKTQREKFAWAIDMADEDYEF
# B1: rabbit chimeric antibody 1A3: rabbit chimeric antibody derived from mouse antibody 1A3; heavy chain SEQ ID NO: 19, light chain SEQ ID NO: 20 (antibody)
# heavy: MKHLWFFLLLVAAPRWVLSEVKLVESGGGLVQPGGSRKLSCAASGFTFSDYGMVWIRQAPGRGLEWVAYISSGSSAIYYADTVKGRFTISRDNPKNTLFLQMNSLRSEDSAMYFCARPPRYDVYSAWFAYWGQGTLVTVSAGQPKAPSVFPLAPCCGDTPSSTVTLGCLVKGYLPEPVTVTWNSGTLTNGVRTFPSVRQSSGLYSLSSVVSVTSSSQPVTCNVAHPATNTKVDKTVAPSTCSKPTCPPPELLGGPSVFIFPPKPKDTLMISRTPEVTCVVVDVSQDDPEVQFTWYINNEQVRTARPPLREQQFNSTIRVVSTLPITHQDWLRGKEFKCKVHNKALPAPIEKTISKARGQPLEPKVYTMGPPREELSSRSVSLTCMINGFYPSDISVEWEKNGKAEDNYKTTPAVLDSDGSYFLYNKLSVPTSEWQRGDVFTCSVMHEALHNHYTQKSISRSPGK
# light: MVLQTQVFISLLLWISGAYGDIVMTQSHKFMSTSVGDRVSITCKASQDVGSAVVWYQQKPGHSPDLLIYWASTRHTGVPDRFTGSGSGTDFTLTIGNVQSEDLADYFCQQYSSYPVTFGGGTKLEIKRDPVAPSVLLFPPSKEELTTGTATIVCVANKFYPSDITVTWKVDGTTQQSGIENSKTPQSPEDNTYSLSSTLSLTSAQYNSHSVYTCEVVQGSASPIVQSFNRGDC
# Legend:
# mouse antibody 1A3 = experiment: Competitive inhibition with HER2-ADC (I), chemical structure recognized by mouse antibody 1A3 (Gyrolab); format: binding; settings: compound 1 and 100 μg/mL dilution solutions; response at HER2-ADC (I) 250 ng/mL
# Source text: The chemical structure to be recognized by mouse antibody 1A3 was checked by competitive inhibition with HER2-ADC (I) using Gyrolab xP workstation (GYROS PROTEIN Technologies). As the compound for use in competitive inhibition, compound (1), compound (2), compound (7), compound (8), compound (9), compound (10), compound (11), Topotecan and Rubitecan were selected.
# As the capture reagent, mouse antibody 1A3 labeled with biotin by a labeling kit (ChromaLink Biotin Protein LABELING Kit, Solulink) was used. The concentration thereof was controlled to be 700 nM with 0.1% PS20-containing PBS. The compounds for use in competitive inhibition, compound (1), compound (2), compound (7), compound (8), compound (9), compound (10), compound (11), Topotecan and Rubitecan were separately dissolved in DMSO. The solutions each was diluted with 10% or 20% DMSO in Rexxip HN (GYROS PROTEIN Technologies) to prepare 0, 1 and 100 μg/mL dilution solutions. To each of them, the 700 nM mouse antibody 1A3 solution was added in an equal amount. The mixture was stirred and allowed to react at room temperature in a dark place for one hour or more. The concentration of HER2-ADC (I) was controlled with Rexxip HN to be 0, 0.244, 0.977, 3.91, 15.6, 62.5, 250 and 1000 ng/mL. As the detection reagent, Mouse Anti-(Anti-HER2 Ab) idiotype Ab (13C1) (IBL) was labeled by DyLight650 (registered trademark) labeling kit and put in use. The concentration thereof was controlled with Rexxip F (GYROS PROTEIN Technologies) to be 10 nM. The above solution was set at Gyrolab xP workstation and measurement was carried out by use of Gyrolab Bioaffy 200 at 200-3W-002-A (PMT5). The regression analysis was carried out by use of Gyrolab Evaluator 3.4.0.24 in 4-parametric logistic model (weight: Response). The calibration curve of HER2-ADC (I) was prepared per concentration of the competitive inhibition compound. The inhibition rate (%) was calculated by comparing the response at an HER2-ADC (I) concentration of 250 ng/mL to that of the case where no compound was added (concentration 0 ng/mL).
# topoisomerase I = target: T1, topoisomerase I; settings: cited from earlier work
# [1] = system: sera of BALB/c mice and BDF1 mice after immunization; experiment: Inhibition ELISA of immunized mouse sera on immobilized antigen protein (2); format: binding; settings: sera diluted 50000 fold; compound 12.5-100 μg/mL
# Experimental: To the sera of BALB/c mice (4 individuals) and BDF1 mice (4 individuals) after immunization through four administrations, compound (6), compound (7) and compound (1) as positive controls and compound (8) as a negative control were added and the unabsorption rate to antigen protein (2) was calculated. The mouse sera diluted to 50000 fold and compound (6), compound (8), compound (7) and compound (1), which were prepared to have a concentration of 12.5, 25, 50 and 100 μg/mL, were mixed and allowed to react at 4° C. overnight, and then, added to ELISA immunoplates having the antigen protein (2) immobilized thereon and allowed to react at 37° C. for 30 minutes. After washing, anti-mouse IgG-HRP was allowed to react at 37° C. for 30 minutes. After washing, an OPD solution was added. After termination of color development, absorbance at 490 nm was measured. The unabsorption rate was calculated in accordance with the following expression: Unabsorption rate(%)=(a/b)×100
# a: Absorbance of positive control or negative control at an addition concentration of 12.5 μg/mL
# b: Absorbance of a sample not containing positive control or a sample not containing a negative control
# TROP2-ADC (I) = experiment: Immunostaining with rabbit chimeric antibody 1A3, FaDu subcutaneous tumor after TROP2-ADC (I); format: binding, nude mouse
# Experimental: To an immunodeficient mouse (nude mouse), human head and neck cancer cell line FaDu was subcutaneously transplanted. After TROP2-ADC (I) was administered, the tumor tissue was taken to prepare paraffin-embedded specimens. Then, stainability of rabbit chimeric antibody 1A3 was examined. The tumor tissue was taken from a nude mouse to which an anti-TROP2 antibody (an antibody comprising a heavy chain consisting of amino acid sequence of amino acid residues 20 to 470 of SEQ ID NO: 25 and a light chain consisting of amino acid sequence of amino acid residues 21 to 234 of SEQ ID NO: 26, hereinafter referred to as “Anti-TROP2 Ab”) and used as a negative control. Deparaffinization and antigen activation were carried out using Autostainer Link pretreatment system (PT Link, manufactured by DAKO) and an antigen retrieval solution (Target Retrieval Solution Low pH, manufactured by DAKO) at 97° C. for 40 minutes. The following staining operation was carried out using an automatic staining device (Dako Autostainer Link 48: manufactured by DAKO) at room temperature. After washing once with EnVision FLEX WASH BUFFER (manufactured by DAKO), REAL Peroxidase-Blocking Solution (manufactured by DAKO) was added; incubation was carried out for 5 minutes; and washing was carried out once with EnVision FLEX WASH BUFFER. […]
# GPR20-ADC (I) = experiment: Immunostaining with rabbit chimeric antibody 1A3, GIST-T1/GPR20 subcutaneous tumor after GPR20-ADC (I); format: binding, nude mouse
Molecule,"competitive inhibition of recognition of mouse antibody 1A3 to HER2-ADC (I) (inhibition rate, FIG. 41) (mouse antibody 1A3)",inhibition effect on binding of mouse sera to antigen protein (2) (unabsorption rate) [1],also measured
CC[C@@]1(O)C(=O)OCc2c1cc1n(c2=O)Cc2cc3c([N+](=O)[O-])cccc3nc2-1 [Rubitecan],did not exhibit competitive inhibition,–,–
CC[C@@]1(O)C(=O)OCc2c1cc1n(c2=O)Cc2cc3c(CN(C)C)c(O)ccc3nc2-1 [Topotecan],did not exhibit competitive inhibition,–,–
"CC[C@@]1(O)C(=O)OCc2c1cc1n(c2=O)Cc2c-1nc1cc(F)c(C)c3c1c2[C@@H](N)CC3 [compound (1), (1S,9S)-1-amino-9-ethyl-5-fluoro-1,2,3,9,12,15-hexahydro-9-hydroxy-4-methyl-10H,13H-benzo[de]pyrano[3′,4′:6,7]indolizino[1,2-b]quinoline-10,13-dione, reference compound]",strong competitive inhibition,high inhibition effect,topoisomerase I inhibitory activity (topoisomerase I): topoisomerase I inhibitory activity
"CC[C@@]1(O)C(=O)OCc2c1cc1n(c2=O)Cc2c-1nc1cc(F)c(C)c3c1c2[C@@H](NC(=O)CCCNC(=O)CCCCCCC(=O)ON1C(=O)CCC1=O)CC3 [compound (6), 8-[(2,5-dioxopyrrolidin-1-yl)oxy]-N-(4-{[(1S,9S)-9-ethyl-5-fluoro-9-hydroxy-4-methyl-10,13-dioxo-2,3,9,10,13,15-hexahydro-1H,12H-benzo[de]pyrano[3′,4′:6,7]indolizino[1,2-b]quinolin-1-yl]amino}-4-oxobutyl)-8-oxooctane Amide]",–,high inhibition effect,–
"CC[C@]1(O)c2cc3n(c(=O)c2COC1O)Cc1c-3nc2cc(F)c(C)c3c2c1[C@@H](NC(=O)CCCN)CC3 (stereo partly drawn) [compound (7), 4-amino-N-[(1S,9S)-9-ethyl-5-fluoro-9,10-dihydroxy-4-methyl-13-oxo-2,3,9,10,13,15-hexahydro-1H,12H-benzo[de]pyrano[3′,4′:6,7]indolizino[1,2-b]quinolin-1-yl] butanamide Trifluoroacetate]",strong competitive inhibition,in some individuals have a high inhibition effect,–
"NCCCC(=O)NC1CCCCC1 [compound (8), 4-amino-N-cyclohexyl-butanamide Hydrochloride]",did not exhibit competitive inhibition,"in none of the plasmas, a high inhibition effect",–
CC[C@@]1(O)C(=O)OCc2c1cc1n(c2=O)Cc2c-1nc1ccc(C)c3c1c2CCC3 [compound (9)],strong competitive inhibition,–,–
CC[C@@]1(O)C(=O)OCc2c1cc1n(c2=O)Cc2c-1nc1cccc3c1c2C(N)CC3 (some centres unmarked) [compound (10)],did not exhibit competitive inhibition,–,–
CC[C@@]1(O)C(=O)OCc2c1cc1n(c2=O)Cc2c-1nc1cc(F)c(CO)c3c1c2[C@@H](N)CC3 [compound (11)],did not exhibit competitive inhibition,–,–
B1,–,–,"stainability to subcutaneous tumor tissue (TROP2-ADC (I); animal administered with TROP2-ADC (I), antibody 0.1 μg/mL): satisfactory stainability; stainability to subcutaneous tumor tissue (TROP2-ADC (I); animal administered with anti-TROP2 Ab (negative control tissue)): did not show stainability; stainability to subcutaneous tumor tissue (GPR20-ADC (I); animal administered with GPR20-ADC (I)): satisfactory stainability; stainability to subcutaneous tumor tissue (GPR20-ADC (I); animal not administered with GPR20-ADC (I)): did not show stainability"
